For assay [1] the following is noted: cited from earlier work.
The subject of assay [2] is adrenaline-induced local sweating. The experiment in a line: OPT-test of sweat response after intradermal adrenaline, epidermal application of local anesthetic emulsions on the forearm. The class given is in vivo, volunteers. Particulars: for sweat response, induced by intracutaneous administration of adrenaline: 12 volunteers, epidermal application; for number of black-coloured sweat pores (OPT-test), M1-10: mean of patients 1-10; for number of black-coloured sweat pores (OPT-test), M1-12: mean of patients 1-12. As for the experimental part:
(§1) The anti perspiration effect of the present invention was determined in an experimental investigation of dermal analgesia and influence upon adrenaline-induced local sweating by epidermal application of different local anesthetic formulations.
(§2) 12 healthy medical students took part in the study.
(§3) Pre-formed pads, consisting of cellulose fibres, 2 times 2 centimetres, were soaked by a standardized procedure in either an emulsion containing 5% lidocaine base + 5% prilocaine base, an emulsifying agent and water, 10% lidocaine base in the same vehicle, 10% prilocaine base in the same vehicle, or a placebo emulsion containing the emulsifying agent and water only. On one forearm of the volunteer the four different emulsions were applied under occlusive dressings consisting of an impervious tape, while on the other arm the four emulsions were applied under a non-occlusive dressing, using surgical tape (3M). A certain distance between the application areas was chosen in order to avoid any risk of interference between them.
(§4) On the arms of the volunteers 11 and 12 the emulsions were applied directly to the skin, with no cellulose pads, but with occlusive and non-occlusive dressings applied as in the other volunteers.
(§5) The application time for the pads was 60 minutes.
(§6) Immediately after removal of the pads, the square areas under the two types of dressing were marked at the edges. A line was also marked within each applied area dividing them into two identical triangles. One of these surfaces were then used by pin-prick experiments, the other for studying the sweat response.
(§7) Just under the apex of each test area triangle an intradermal wheal 0.1 ml adrenaline 1:10 000 was injected. Pain on injection was noted. The test area was then swabbed with OPT (5% orthophthaldialdehyde in xylol). After drying the OPT-applied area a plastic ring with adhesive on the back side was placed over the visible vasoconstricted area caused by the adrenaline effect, within the test triangle previously covered by the test compositions. The number of black-coloured sweat pores within the standardized diameter hole in the plastic rings was counted under a direct vision microscope.

In another assay the test system is dermal analgesia. The experiment in a line: Pin-prick test of dermal analgesia after epidermal application of local anesthetic emulsions on the forearm. In kind it is in vivo, volunteers. Particulars: for Pin-prick test, M1–10: mean of patients 1-10 (out of 10 pin-pricks); for Pin-prick test, M1–12: mean of patients 1-12; for dermal analgesia, effectiveness versus placebo emulsion: under occlusion as well as under a non-occlusive bandage. The procedure:
as §1, §2, §3, §4, §5, §6
The pin-pricking procedure was carried out with disposable dental needles. In each of the test areas 10 pin-pricks were made. 10/10 represents full analgesia, 0/10 no analgesia.

Assay [3] can be described thus: Pain on intradermal injection of adrenaline solution in the test areas. In kind it is in vivo. The conditions noted are these: 0.1 ml adrenaline 1:10 000 in the test area; all volunteers. The procedure:
as §7
All volunteers reported pain at the intradermal injection of adrenaline solution at the placebo, the lidocaine and the prilocaine areas but not at the lidocaine-prilocaine areas.

Setting [4] is: Non-Occlusion, individual Patient No 1-10, soaked cellulose pads, 60 minutes.
Where [5] appears, read: Non-Occlusion, individual Patient No 11, 12, emulsions applied directly to the skin, no cellulose pads.
Setting [6] is: Occlusion, individual Patient No 1-10, soaked cellulose pads, 60 minutes, L—P 5%+5%, L 10%, P 10% emulsion.
[7] abbreviates: Occlusion, individual Patient No 11, 12, emulsions applied directly to the skin, no cellulose pads.
[8] abbreviates: total concentration of 10%, aqueous emulsion.
[9] abbreviates: Non-Occlusion, individual Patient No 1-10, pads, 60 minutes, 10/10 full analgesia, 0/10 no analgesia.
Setting [10] is: Occlusion, individual Patient No 1-10, pads, 60 minutes, 10 pin-pricks, 10/10 full analgesia, 0/10 no analgesia.

These results are taken from patent EP0002426B1, “Antiperspirant” (priority 1977, dated 1979).

Several values for one entry are separate records, joined by “and”; a condition that tells them apart may be missing. Equal entries are not always repeated. Where two headings read alike, the source gives them in different places.

Consider `CCN(CC)CCOC(=O)c1ccc(N)cc1` [procaine], for which the antihydrotic effect result in assay [1] (administered electrophoretically) is reported as “possesses an antihydrotic effect”; in assay [1] (without electrophoresis, only topically) it was “will not give any antihydrotic effect”.

On to `CCCNC(C)C(=O)Nc1ccccc1C` (stereo not shown) [P, 2-propylamino-N-(2-tolyl)propionamide], for which the “sweat response, induced by intracutaneous administration of adrenaline” value in assay [2] is “partly blocked”. The “number of black-coloured sweat pores (OPT-test)” value in assay [2] (setting [4]) is 46 and 18 (2×) and 34 and 24 and 26 (2×) and 25 and 21 and 40; in assay [2] (setting [5]) it was 14 and 20; in assay [2] (setting [6]), 24 (2×) and 30 and 17 and 52 and 18 and 22 and 15 and 28; in assay [2] (setting [7]), 24 and 16. Moreover, the “number of black-coloured sweat pores (OPT-test), M1-10” value turned out to be 27.8 in assay [2] (Non-Occlusion) and 25.6 in assay [2] (Occlusion). In addition, the “number of black-coloured sweat pores (OPT-test), M1-12” value in assay [2] (Non-Occlusion) is listed as 26.0; in assay [2] (Occlusion), 24.54. In assay [2] (setting [8]), the “sweat response inhibition, compared among the tested formulations” value is recorded as “less effective”. In addition, the “sweat response, effectiveness versus placebo” value in assay [2] (under non-occlusive bandage) is “more effective than placebo”; in assay [2] (under occlusive bandage) it was “significantly more effective than placebo”. Besides, the Pin-prick test was 1/10 and 0/10 (8×) and 6/10 in the assay with dermal analgesia (setting [9]); 2/10 and 0/10 with dermal analgesia (setting [5]); 2/10 and 0/10 (6×) and 10/10 and 1/10 in the assay with dermal analgesia (setting [10]); 7/10 and 9/10 in the assay on dermal analgesia (setting [7]). In addition, the “Pin-prick test, M1–10” value in the assay on dermal analgesia (Non-Occlusion) came to 0.70; with dermal analgesia (Occlusion), 1.44. The “Pin-prick test, M1–12” value with dermal analgesia (Non-Occlusion) turned out to be 0.75; in the assay with dermal analgesia (Occlusion), 2.64. Also, in the assay with dermal analgesia (setting [8]), the “dermal analgesia (pin-pricking), compared among the tested formulations” value is reported as “less effective”. For the same molecule, the “dermal analgesia, effectiveness versus placebo emulsion” value with dermal analgesia is “insignificantly more effective than the placebo emulsion”. The “pain at the intradermal injection of adrenaline solution” value in assay [3] was “reported pain”.

Consider `CCN(CC)CC(=O)Nc1c(C)cccc1C` [L, Diethylaminoacet-2',6'-xylidide], for which the “sweat response, induced by intracutaneous administration of adrenaline” value in assay [2] is “partly blocked”. Besides, the “number of black-coloured sweat pores (OPT-test)” value is 42 and 24 (4×) and 29 and 27 and 25 and 19 and 32 in assay [2] (setting [4]); 22 and 33 in assay [2] (setting [5]); 22 (2×) and 25 and 20 (2×) and 24 (2×) and 16 (2×) and 28 in assay [2] (setting [6]); 12 and 26 in assay [2] (setting [7]). In addition, the “number of black-coloured sweat pores (OPT-test), M1-10” value in assay [2] (Non-Occlusion) worked out at 27.0; in assay [2] (Occlusion) it was 21.7. In addition, the “number of black-coloured sweat pores (OPT-test), M1-12” value in assay [2] (Non-Occlusion) worked out at 27.08; in assay [2] (Occlusion), 21.25. The entries for the “sweat response, effectiveness versus placebo” value in assay [2] (under non-occlusive bandage) and in assay [2] (under occlusive bandage) were “more effective than placebo” and “significantly more effective than placebo”, respectively. In addition, the Pin-prick test with dermal analgesia (setting [9]) is 0/10 (9×) and 1/10; in the assay with dermal analgesia (setting [5]) it was 0/10; in the assay on dermal analgesia (setting [10]) it was 0/10 (5×) and 2/10 (3×) and 5/10 and 3/10; with dermal analgesia (setting [7]), 8/10 and 6/10. Moreover, the “Pin-prick test, M1–10” value was 0.10 in the assay with dermal analgesia (Non-Occlusion) and 1.40 with dermal analgesia (Occlusion). Also, the “Pin-prick test, M1–12” value is recorded as 0.08 with dermal analgesia (Non-Occlusion) and 2.33 in the assay on dermal analgesia (Occlusion). The “dermal analgesia, effectiveness versus placebo emulsion” value with dermal analgesia was “insignificantly more effective than the placebo emulsion”. Further, the “pain at the intradermal injection of adrenaline solution” value in assay [3] is listed as “reported pain”.
